Results taken from the kinase profiling compilation of Christmann-Franck et al. (2016).
“And” between values parts separate entries of the source, which are not always exact repeats. Equal entries are not always repeated.

Experiments:
Test in all cases: radiometric filter-binding kinase assay, Kinase HotSpot
Settings in all cases: compound 0.5 µM; ATP 10 µM
FGFR1 (human) = FGFR1 (human) (UniProt P11362)
PIM3 (human) = PIM3 (human) (UniProt Q86V86)
NUAK2 (human) = NUAK2 (human) (UniProt Q9H093)
CSNK1G1 (human) = CSNK1G1 (human) (UniProt Q9HCP0)
STK16 (human) = STK16 (human) (UniProt O75716)
MET (human) = MET (human) (UniProt P08581)
VRK1 (human) = VRK1 (human) (UniProt Q99986)
[1] = target: TYK2 JH1 catalytic (human) (UniProt P29597)
EPHA1 (human) = EPHA1 (human) (UniProt P21709)
FYN (human) = FYN (human) (UniProt P06241)
HCK (human) = HCK (human) (UniProt P08631)
SRPK1 (human) = SRPK1 (human) (UniProt Q96SB4)
LIMK1 (human) = LIMK1 (human) (UniProt P53667)
PLK2 (human) = PLK2 (human) (UniProt Q9NYY3)
DCLK2 (human) = DCLK2 (human) (UniProt Q8N568)
EPHB2 (human) = EPHB2 (human) (UniProt P29323)
MKNK2 (human) = MKNK2 (human) (UniProt Q9HBH9)
GSK3B (human) = GSK3B (human) (UniProt P49841)
ABL2 (human) = ABL2 (human) (UniProt P42684)
PNCK (human) = PNCK (human) (UniProt Q6P2M8)
AURKB (human) = AURKB (human) (UniProt Q96GD4)
FGFR3 (human) = FGFR3 (human) (UniProt P22607)
PTK2B (human) = PTK2B (human) (UniProt Q14289)
MAP2K1 (human) = MAP2K1 (human) (UniProt Q02750)
MAPK13 (human) = MAPK13 (human) (UniProt O15264)
CAMKK1 (human) = CAMKK1 (human) (UniProt Q8N5S9)
CSNK2A2 (human) = CSNK2A2 (human) (UniProt P19784)
WNK3 (human) = WNK3 (human) (UniProt Q9BYP7)
PRKG1 (human) = PRKG1 (human) (UniProt Q13976)
DYRK4 (human) = DYRK4 (human) (UniProt Q9NR20)
AKT3 (human) = AKT3 (human) (UniProt Q9Y243)
FES (human) = FES (human) (UniProt P07332)
PASK (human) = PASK (human) (UniProt Q96RG2)
WEE1 (human) = WEE1 (human) (UniProt P30291)
[2] = target: JAK1 JH1 catalytic (human) (UniProt P23458)
FRK (human) = FRK (human) (UniProt P42685)
GSG2 (human) = GSG2 (human) (UniProt Q8TF76)
BMX (human) = BMX (human) (UniProt P51813)

Sequence of SRPK1 (human) (Q96SB4 whole entry, looked up): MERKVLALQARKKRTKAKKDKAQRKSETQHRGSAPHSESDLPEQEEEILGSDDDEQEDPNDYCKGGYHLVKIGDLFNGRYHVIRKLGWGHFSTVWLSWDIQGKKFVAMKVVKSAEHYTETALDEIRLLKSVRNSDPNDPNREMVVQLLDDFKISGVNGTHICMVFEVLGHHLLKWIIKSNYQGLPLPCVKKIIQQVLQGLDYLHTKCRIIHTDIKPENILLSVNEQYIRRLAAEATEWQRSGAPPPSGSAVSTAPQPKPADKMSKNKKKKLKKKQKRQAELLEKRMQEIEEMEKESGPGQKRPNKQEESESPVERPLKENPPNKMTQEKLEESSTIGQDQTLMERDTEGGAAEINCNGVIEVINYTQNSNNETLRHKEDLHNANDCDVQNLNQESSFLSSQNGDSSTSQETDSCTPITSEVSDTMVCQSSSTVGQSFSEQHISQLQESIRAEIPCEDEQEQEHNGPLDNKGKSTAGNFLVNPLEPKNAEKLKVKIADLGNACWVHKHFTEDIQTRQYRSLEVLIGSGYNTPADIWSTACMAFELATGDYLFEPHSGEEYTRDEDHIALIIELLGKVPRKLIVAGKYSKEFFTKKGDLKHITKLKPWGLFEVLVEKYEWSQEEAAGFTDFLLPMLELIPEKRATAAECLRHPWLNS
Sequence of FRK (human) (P42685 whole entry, looked up): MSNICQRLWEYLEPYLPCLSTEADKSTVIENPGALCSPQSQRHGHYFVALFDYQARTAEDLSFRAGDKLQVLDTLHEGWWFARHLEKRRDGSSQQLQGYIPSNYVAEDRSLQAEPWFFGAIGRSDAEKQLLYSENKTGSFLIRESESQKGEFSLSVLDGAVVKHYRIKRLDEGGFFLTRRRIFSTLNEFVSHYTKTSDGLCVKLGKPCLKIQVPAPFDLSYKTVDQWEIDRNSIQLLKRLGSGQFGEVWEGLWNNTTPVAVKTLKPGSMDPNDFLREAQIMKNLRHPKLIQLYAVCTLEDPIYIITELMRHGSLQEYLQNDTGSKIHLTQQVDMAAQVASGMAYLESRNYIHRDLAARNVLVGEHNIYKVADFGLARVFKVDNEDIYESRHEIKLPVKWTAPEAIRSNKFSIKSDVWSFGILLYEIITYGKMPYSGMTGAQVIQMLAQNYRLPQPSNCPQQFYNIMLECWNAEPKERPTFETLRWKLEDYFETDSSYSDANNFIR
Sequence of CSNK1G1 (human) (Q9HCP0 whole entry, looked up): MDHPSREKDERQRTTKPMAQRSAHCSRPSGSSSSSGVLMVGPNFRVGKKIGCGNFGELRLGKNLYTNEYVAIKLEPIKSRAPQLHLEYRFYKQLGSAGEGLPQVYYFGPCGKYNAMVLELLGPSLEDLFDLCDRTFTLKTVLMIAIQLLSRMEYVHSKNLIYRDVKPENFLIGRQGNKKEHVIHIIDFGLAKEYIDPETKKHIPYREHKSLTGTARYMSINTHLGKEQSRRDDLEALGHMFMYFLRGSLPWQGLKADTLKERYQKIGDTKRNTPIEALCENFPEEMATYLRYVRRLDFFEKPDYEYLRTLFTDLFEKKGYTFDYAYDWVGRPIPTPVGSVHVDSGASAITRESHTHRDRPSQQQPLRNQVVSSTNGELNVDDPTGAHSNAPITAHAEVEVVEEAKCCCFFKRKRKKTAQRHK
Sequence of PLK2 (human) (Q9NYY3 whole entry, looked up): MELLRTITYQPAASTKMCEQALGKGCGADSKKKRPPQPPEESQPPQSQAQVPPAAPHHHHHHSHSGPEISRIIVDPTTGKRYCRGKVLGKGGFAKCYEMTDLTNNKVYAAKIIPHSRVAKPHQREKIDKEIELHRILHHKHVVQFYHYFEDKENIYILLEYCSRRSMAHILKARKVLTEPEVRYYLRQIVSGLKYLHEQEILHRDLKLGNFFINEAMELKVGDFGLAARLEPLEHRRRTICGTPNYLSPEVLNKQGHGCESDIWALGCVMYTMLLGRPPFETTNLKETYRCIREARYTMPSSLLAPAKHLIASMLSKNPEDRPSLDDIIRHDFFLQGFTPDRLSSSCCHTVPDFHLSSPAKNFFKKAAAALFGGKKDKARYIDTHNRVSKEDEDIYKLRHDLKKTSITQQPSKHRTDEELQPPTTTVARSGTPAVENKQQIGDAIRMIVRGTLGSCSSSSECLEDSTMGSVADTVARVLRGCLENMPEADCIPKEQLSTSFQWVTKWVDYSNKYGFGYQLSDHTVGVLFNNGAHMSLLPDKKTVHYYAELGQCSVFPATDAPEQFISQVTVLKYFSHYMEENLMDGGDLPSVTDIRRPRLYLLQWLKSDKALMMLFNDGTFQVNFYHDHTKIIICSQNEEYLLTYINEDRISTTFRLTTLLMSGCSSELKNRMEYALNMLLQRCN
Sequence of ABL2 (human) (P42684 whole entry, looked up): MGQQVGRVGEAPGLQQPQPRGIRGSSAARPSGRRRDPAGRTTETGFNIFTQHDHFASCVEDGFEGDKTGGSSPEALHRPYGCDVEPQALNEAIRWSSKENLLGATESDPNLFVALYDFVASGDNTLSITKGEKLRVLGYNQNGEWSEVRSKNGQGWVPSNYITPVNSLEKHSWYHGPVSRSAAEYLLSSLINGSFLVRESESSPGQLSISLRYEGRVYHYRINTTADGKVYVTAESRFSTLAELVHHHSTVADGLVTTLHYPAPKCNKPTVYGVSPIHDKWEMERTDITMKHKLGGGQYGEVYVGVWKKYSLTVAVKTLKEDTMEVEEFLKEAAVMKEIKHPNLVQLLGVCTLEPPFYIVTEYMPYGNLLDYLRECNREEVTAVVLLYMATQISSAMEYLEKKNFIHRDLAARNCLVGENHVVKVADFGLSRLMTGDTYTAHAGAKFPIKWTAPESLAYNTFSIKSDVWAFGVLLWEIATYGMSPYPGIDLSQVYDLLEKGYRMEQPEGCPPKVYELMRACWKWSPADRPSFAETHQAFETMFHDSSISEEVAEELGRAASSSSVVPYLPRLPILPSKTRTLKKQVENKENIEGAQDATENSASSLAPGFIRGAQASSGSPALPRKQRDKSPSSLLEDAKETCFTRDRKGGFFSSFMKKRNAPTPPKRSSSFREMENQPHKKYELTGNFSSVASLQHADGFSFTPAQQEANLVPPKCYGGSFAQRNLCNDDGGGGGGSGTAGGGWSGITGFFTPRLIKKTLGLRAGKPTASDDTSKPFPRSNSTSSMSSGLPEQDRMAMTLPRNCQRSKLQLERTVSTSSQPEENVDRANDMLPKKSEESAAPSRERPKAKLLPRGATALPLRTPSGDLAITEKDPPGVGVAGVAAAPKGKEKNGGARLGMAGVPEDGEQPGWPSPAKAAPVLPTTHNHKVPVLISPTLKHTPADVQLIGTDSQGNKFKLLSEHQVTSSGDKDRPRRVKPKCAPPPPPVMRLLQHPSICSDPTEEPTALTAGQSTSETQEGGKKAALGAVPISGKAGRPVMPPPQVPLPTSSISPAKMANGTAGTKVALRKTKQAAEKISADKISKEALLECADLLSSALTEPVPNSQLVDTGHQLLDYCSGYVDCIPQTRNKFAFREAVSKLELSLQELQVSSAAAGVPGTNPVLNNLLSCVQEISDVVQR
Sequence of DCLK2 (human) (Q8N568 whole entry, looked up): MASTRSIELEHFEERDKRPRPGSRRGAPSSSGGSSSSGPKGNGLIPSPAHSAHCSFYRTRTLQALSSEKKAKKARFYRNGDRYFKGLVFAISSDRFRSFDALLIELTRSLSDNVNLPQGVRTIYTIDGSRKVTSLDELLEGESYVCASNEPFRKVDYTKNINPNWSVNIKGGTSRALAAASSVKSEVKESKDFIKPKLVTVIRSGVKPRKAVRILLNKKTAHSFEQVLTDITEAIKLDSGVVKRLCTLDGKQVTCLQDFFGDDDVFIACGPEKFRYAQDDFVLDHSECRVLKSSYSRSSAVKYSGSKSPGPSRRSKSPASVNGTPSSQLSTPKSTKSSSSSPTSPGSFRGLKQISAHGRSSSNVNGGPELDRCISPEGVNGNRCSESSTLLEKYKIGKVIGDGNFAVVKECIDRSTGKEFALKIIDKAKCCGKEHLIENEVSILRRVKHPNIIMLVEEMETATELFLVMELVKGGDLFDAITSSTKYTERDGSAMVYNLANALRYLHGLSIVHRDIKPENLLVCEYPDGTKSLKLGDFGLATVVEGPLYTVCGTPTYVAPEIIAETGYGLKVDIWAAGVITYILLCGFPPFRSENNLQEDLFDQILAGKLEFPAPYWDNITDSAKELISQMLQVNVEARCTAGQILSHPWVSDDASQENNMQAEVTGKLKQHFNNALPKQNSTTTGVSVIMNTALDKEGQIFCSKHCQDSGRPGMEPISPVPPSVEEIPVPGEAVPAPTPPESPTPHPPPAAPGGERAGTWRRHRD
Sequence of PRKG1 (human) (Q13976 whole entry, looked up): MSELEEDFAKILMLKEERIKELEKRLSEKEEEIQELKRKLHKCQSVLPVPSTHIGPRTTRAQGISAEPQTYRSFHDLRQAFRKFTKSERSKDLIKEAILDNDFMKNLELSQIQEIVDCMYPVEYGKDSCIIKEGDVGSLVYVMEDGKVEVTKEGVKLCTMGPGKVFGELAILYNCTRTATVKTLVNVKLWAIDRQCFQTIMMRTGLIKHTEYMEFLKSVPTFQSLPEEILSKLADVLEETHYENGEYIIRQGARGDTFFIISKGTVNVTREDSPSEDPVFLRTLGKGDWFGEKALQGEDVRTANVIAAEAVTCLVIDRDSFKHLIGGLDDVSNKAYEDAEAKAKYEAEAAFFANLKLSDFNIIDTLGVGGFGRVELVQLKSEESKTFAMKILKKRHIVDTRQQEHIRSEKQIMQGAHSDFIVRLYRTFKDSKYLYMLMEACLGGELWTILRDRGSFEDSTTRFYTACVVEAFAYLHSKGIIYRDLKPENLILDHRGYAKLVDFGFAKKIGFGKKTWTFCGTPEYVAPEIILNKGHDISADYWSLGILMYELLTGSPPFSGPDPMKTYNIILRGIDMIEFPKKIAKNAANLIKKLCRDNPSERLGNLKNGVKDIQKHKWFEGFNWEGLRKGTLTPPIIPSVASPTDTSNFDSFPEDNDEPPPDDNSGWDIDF

| SMILES | residual activity (FGFR1 (human)) | residual activity (PIM3 (human)) | residual activity (NUAK2 (human)) | residual activity (CSNK1G1 (human)) | residual activity (STK16 (human)) | residual activity (MET (human)) | residual activity (VRK1 (human)) | residual activity [1] | residual activity (EPHA1 (human)) | residual activity (FYN (human)) | residual activity (HCK (human)) | residual activity (SRPK1 (human)) | residual activity (LIMK1 (human)) | residual activity (PLK2 (human)) | residual activity (DCLK2 (human)) | residual activity (EPHB2 (human)) | residual activity (MKNK2 (human)) | residual activity (GSK3B (human)) | residual activity (ABL2 (human)) | residual activity (PNCK (human)) | other results |
| --- | --- | --- | --- | --- | --- | --- | --- | --- | --- | --- | --- | --- | --- | --- | --- | --- | --- | --- | --- | --- | --- |
| COc1cc2ncnc(Nc3ccc(OCc4ccccc4)cc3)c2cc1OC | 91.3% | 119% | 101% | 90.6% | 106% | 98.9% | 89% | 103% | 102% | 86.3% | 74.5% | 105% | 95.4% | 109% | 102% | 93.9% | 88.1% | 119% | 101% | 99% | residual activity (AURKB (human)): 50.3%; residual activity (FGFR3 (human)): 102%; residual activity (PTK2B (human)): 99.8%; residual activity (MAP2K1 (human)): 94.7%; residual activity (MAPK13 (human)): 103%; residual activity (CAMKK1 (human)): 126%; residual activity (CSNK2A2 (human)): 95.3%; residual activity (WNK3 (human)): 90.8%; residual activity (PRKG1 (human)): 90.3% and 99.3%; residual activity (DYRK4 (human)): 97.6%; residual activity (AKT3 (human)): 103%; residual activity (FES (human)): 97%; residual activity (PASK (human)): 98.6%; residual activity (WEE1 (human)): 94.7%; residual activity [2]: 101%; residual activity (FRK (human)): 104%; residual activity (GSG2 (human)): 86.2%; residual activity (BMX (human)): 89.7% |
| COc1ccc(C(=O)Nc2sc3c(c2C(N)=O)CCCC3)cc1OC | 94.8% | 109% | 99.5% | 90.1% | 106% | 82.8% | 95.3% | 117% | 88.1% | 93.9% | 109% | 82.6% | 93.2% | 106% | 98.6% | 73.5% | 78.7% | 97.7% | 101% | 103% | residual activity (AURKB (human)): 96.2%; residual activity (FGFR3 (human)): 98.3%; residual activity (PTK2B (human)): 95.5%; residual activity (MAP2K1 (human)): 99.1%; residual activity (MAPK13 (human)): 109%; residual activity (CAMKK1 (human)): 125%; residual activity (CSNK2A2 (human)): 104%; residual activity (WNK3 (human)): 96.4%; residual activity (PRKG1 (human)): 87.5% and 97%; residual activity (DYRK4 (human)): 98.5%; residual activity (AKT3 (human)): 102%; residual activity (FES (human)): 102%; residual activity (PASK (human)): 101%; residual activity (WEE1 (human)): 92.3%; residual activity [2]: 104%; residual activity (FRK (human)): 88.8%; residual activity (GSG2 (human)): 82.8%; residual activity (BMX (human)): 89.8% |
| O=C(c1cc2cc(O)ccc2[nH]1)c1cc2cc(O)ccc2[nH]1 | 86.5% | 98.9% | 95.7% | 93.1% | 54.6% | 89.2% | 85.3% | 66.7% | 81.1% | 28.8% | 51.2% | 92.2% | 87.9% | 102% | 88.4% | 76.7% | 46.8% | 78.7% | 27.2% | 105% | residual activity (AURKB (human)): 24.2%; residual activity (FGFR3 (human)): 92.1%; residual activity (PTK2B (human)): 85.5%; residual activity (MAP2K1 (human)): 103%; residual activity (MAPK13 (human)): 108%; residual activity (CAMKK1 (human)): 63.3%; residual activity (CSNK2A2 (human)): 78.8%; residual activity (WNK3 (human)): 74.6%; residual activity (PRKG1 (human)): 84.3% and 90%; residual activity (DYRK4 (human)): 99.7%; residual activity (AKT3 (human)): 102%; residual activity (FES (human)): 95.3%; residual activity (PASK (human)): 78.7%; residual activity (WEE1 (human)): 90.6%; residual activity [2]: 98.7%; residual activity (FRK (human)): 86.1%; residual activity (GSG2 (human)): 34.8%; residual activity (BMX (human)): 80.6% |
| O=C1NC(=O)c2c1c1c3ccccc3[nH]c1n1cncc21 | 55.2% | 4.48% | 80.1% | 68.4% | 70.9% | 93.4% | 78.1% | 85.4% | 72.4% | 97.7% | 94.6% | 95.4% | 74.7% | 63.8% | 82.3% | 86.1% | 35% | 30.8% | 79.9% | 105% | residual activity (AURKB (human)): 25.2%; residual activity (FGFR3 (human)): 85%; residual activity (PTK2B (human)): 70.1%; residual activity (MAP2K1 (human)): 102%; residual activity (MAPK13 (human)): 107%; residual activity (CAMKK1 (human)): 63.5%; residual activity (CSNK2A2 (human)): 53.4%; residual activity (WNK3 (human)): 79.1%; residual activity (PRKG1 (human)): 85.9% and 93.8%; residual activity (DYRK4 (human)): 107%; residual activity (AKT3 (human)): 94.3%; residual activity (FES (human)): 117%; residual activity (PASK (human)): 33.6%; residual activity (WEE1 (human)): 94.7%; residual activity [2]: 102%; residual activity (FRK (human)): 96.8%; residual activity (GSG2 (human)): 33.5%; residual activity (BMX (human)): 91.7% |
| CCCCc1c(-c2ccc(OC)cc2)[nH]c2nccnc12 | 83.3% | 90.9% | 68% | 93.3% | 58.7% | 86.8% | 95.5% | 38.8% | 67.9% | 61.3% | 94.4% | 100% | 65.3% | 94.9% | 101% | 88.8% | 99.3% | 70.2% | 70.5% | 120% | residual activity (AURKB (human)): 64.5%; residual activity (FGFR3 (human)): 86.8%; residual activity (PTK2B (human)): 100%; residual activity (MAP2K1 (human)): 88.7%; residual activity (MAPK13 (human)): 99.1%; residual activity (CAMKK1 (human)): 105%; residual activity (CSNK2A2 (human)): 94.1%; residual activity (WNK3 (human)): 88.4%; residual activity (PRKG1 (human)): 102% and 92.7%; residual activity (DYRK4 (human)): 97.7%; residual activity (AKT3 (human)): 102%; residual activity (FES (human)): 66%; residual activity (PASK (human)): 97.6%; residual activity (WEE1 (human)): 85.9%; residual activity [2]: 67.1%; residual activity (FRK (human)): 86.5%; residual activity (GSG2 (human)): 80%; residual activity (BMX (human)): 82.2% |
